# According to patent US7795456B2, “Insecticidal N-substituted sulfoximines” (Dow AgroSciences LLC, priority 2004, dated 2010):
# Experiments:
# [1] = tested on: corn earworm (Helicoverpa zea); settings: 50 μg/cm2, second-instar larvae, 5 days
# [2] = tested on: beet armyworm (Spodoptera exigua); settings: 50 μg/cm2, second-instar larvae, 5 days
# [3] = tested on: fruit fly (Drosophila melanogaster); settings: for FF 25: % mortality at 25 μg/cm2 against fruit fly in dietary tests: 25 μg/cm2, 48 h
# [4] = tested on: cotton aphid (Aphis gossypii); assay: Insecticidal test for cotton aphid, foliar spray on squash; settings: Aphis gossypii, foliar, 72 h; for pest or weed control at 50 ppm: read-out: CA 50: % control at 50 ppm against cotton aphid in foliar spray tests; for pest or weed control at 200 ppm: read-out: CA 200: % control at 200 ppm against cotton aphid in foliar spray tests
# [5] = tested on: sweet potato whitefly (Bemisia tabaci); assay: Insecticidal test for sweet potato whitefly, foliar spray on cotton; settings: Bemisia tabaci, in Gossypium hirsutum, foliar, read-out: SPW 200: % control at 200 ppm against sweet potato whitefly in foliar spray tests
# [6] = tested on: beet armyworm (Spodoptera exigua); assay: Insecticidal test for beet armyworm in injection assays; settings: 1 h, read-out: BAW SYM: % showing intoxicated symptoms at 10 μg/larva against beet armyworm in injection tests
Structure (SMILES),CEW 50: % mortality at 50 μg/cm2 against corn earworm in dietary tests [1],BAW 50: % mortality at 50 μg/cm2 against beet armyworm in dietary tests [2],FF 25: % mortality at 25 μg/cm2 against fruit fly in dietary tests [3],pest or weed control at 50 ppm [4],pest or weed control at 200 ppm [4],pest or weed control at 200 ppm [5],pest or weed control at 0.01 mg [6],"FF SYM: % showing intoxicated symptoms at 25 μg/cm2 against fruit fly in dietary tests ([3]; 25 μg/cm2, 4 h)"
"CC(Cc1ccc(Cl)nc1)CS(C)(=O)=NC#N (centres unmarked) [Compound 2, [3-(6-Chloropyridin-3-yl)-2-methylpropyl](methyl)oxido-λ^4-sulfanylidenecyanamide]",G (Inactive),G (Inactive),G (Inactive),80 to 89%,90 to 100%,,,
CC[S@](=O)(=NC#N)[C@@H](C)c1ccc(Cl)nc1 [Compound 19],G (Inactive),G (Inactive),F (Less than 50),90 to 100%,90 to 100%,70 to 79%,,
CS(=O)(CCc1ccc(Cl)nc1)=N[N+](=O)[O-] (centres unmarked) [Compound 37],G (Inactive),G (Inactive),G (Inactive),90 to 100%,90 to 100%,,,
"CCOc1ccc(S(C)(=O)=NC#N)cn1 (centres unmarked) [Compound 42, (6-Ethoxypyridin-3-yl)(methyl)oxido-λ^4-sulfanylidenecyanamide]",G (Inactive),G (Inactive),G (Inactive),70 to 79%,90 to 100%,,,
Cc1ccc(CC2CCCS2(=O)=NC#N)cn1 (centres unmarked) [Compound 30],G (Inactive),G (Inactive),G (Inactive),90 to 100%,90 to 100%,,,
CCS(=O)(=NC#N)C(C)c1ccc(Cl)nc1 (centres unmarked) [Compound 18],G (Inactive),G (Inactive),G (Inactive),90 to 100%,90 to 100%,80 to 89%,< 50%,
CC(CS(C)(=O)=NC#N)c1ccc(Cl)nc1 (centres unmarked) [Compound 15],G (Inactive),G (Inactive),G (Inactive),80 to 89%,90 to 100%,,,
CS(=O)(Cc1ccc(Cl)nc1)=N[N+](=O)[O-] (centres unmarked) [Compound 33],G (Inactive),G (Inactive),F (Less than 50),90 to 100%,90 to 100%,,,F (Less than 50)
CC[S@](=O)(=N[N+](=O)[O-])[C@H](C)c1ccc(Cl)nc1 [Compound 39],G (Inactive),G (Inactive),F (Less than 50),,90 to 100%,,,
"CC(CS(C)(=O)=N[N+](=O)[O-])c1ccc(Cl)nc1 (centres unmarked) [Compound 4, 2-Chloro-5-(1-methyl-2-{methyl(oxido)[oxido(oxo)hydrazono]-λ^4-sulfanyl}ethyl)pyridine]",G (Inactive),G (Inactive),G (Inactive),,< 50%,,< 50%,
